Where two headings read alike, the source gives them in different places. Non-standard residues stand in square brackets, D forms with d. Residues, ends and D or L forms follow the SMILES beside them. *: point of attachment. Lauroyl = CCCCCCCCCCCC(=O)*; 12Ado = NCCCCCCCCCCCC(=O)O; Aoc = NCCCCCCCC(=O)O
Experiments:
[1] = XTT cell viability assay, non-cancerous cardiac fibroblasts (CF); assay type: cell-based, rat
Text: Primary non-cancerous rat cardiac fibroblasts (CF);
(§1) As a routine cancer cell killing assay for assessment of antitumor activity, 2,3-bis(2-methoxy-4-nitro-5-sulfophenyl)-2H-tetrazolium-5-carboxanilide inner salt (XTT) reduction assay was used, utilizing a commercial kit such as, for example, Cell Proliferation XTT Kit, Cat. No. 20-300-1000, Biological Industries Ltd., Kibbutz Beit Haemek, Israel. XTT is a tetrazolium salt which is cleaved to formazan colored compounds by the mitochondrial dehydrogenase enzymes indicating proper mitochondrial activity in intact cells.
(§2) Thereafter, a series of increasing concentrations of the polymers were added. After another 24 hours of incubation, XTT reaction solution was added (50 μl of XTT per 100 μl of cell culture medium). The optical density of the cells was measured at 450 nm by ELISA plate reader after 2-4 hours XTT incubation. Cell viability was determined relative to a control having no polymer added thereto.
“Rat primary cardiac fibroblast CF” represents the lethal concentration in μM as measured against CF cell line, measured as described hereinabove in the cell proliferation XTT assay (column 8 in Table 3);

[2] = tested on: TRAMP-C2 cell line; assay type: cell-based; conditions: 24 hours incubation, XTT; read-out: Cancer LC50 Mouse prostate cancer TRAMP-C2
Text: Transgenic adenocarcinoma mouse prostate cells (TRAMP-C2);
as §1, §2
“Mouse prostate cancer TRAMP-C2” represents the lethal concentration in μM as measured against TRAMP-C2 cell line, measured as described hereinabove in the cell proliferation XTT assay (column 5 in Table 3);

[3] = tested on: MCF-7 cell line; assay type: cell-based; conditions: 24 hours incubation, XTT; read-out: Cancer LC50 Human breast cancer MCF-7
Experimental: Human breast adenocarcinoma cells (MCF-7);
Thereafter, a series of increasing concentrations of the polymers were added. […] The optical density of the cells was measured at 450 nm by ELISA plate reader after 2-4 hours XTT incubation. Cell viability was determined relative to a control having no polymer added thereto.

[4] = tested on: N-417 cell line; assay: XTT cell viability assay, N-417 cells; assay type: cell-based; conditions: 24 hours incubation, XTT; read-out: Cancer LC50 Human small-cell lung carcinoma N-417
Text: Variant small cell lung cancer cells (N-417, SCLC);
as §1, §2
“Human breast cancer MCF-7” represents the lethal concentration in μM as measured against MCF-7 cell line, measured as described hereinabove in the cell proliferation XTT assay (column 6 in Table 3); “Human small-cell lung carcinoma N-417” represents the lethal concentration in μM as measured against N-417 cell line, measured as described hereinabove in the cell proliferation XTT assay (column 7 in Table 3);

[5] = primary cardiac fibroblasts (CF), primary non-cancerous rat cardiac fibroblasts, XTT assay, read-out: CF lethal concentration

SMILES | CC50 at 24 h [1, 5] [µM] | further results
NCCCC[C@H](NC(=O)CCCCCCCCCCCNC(=O)[C@H](CCCCN)NC(=O)CCCCCCCCCCCNC(=O)[C@@H](N)CCCCN)C(N)=O [K(NC12K)2NH2] | > 16 | –
CCCCCCCCCCCC(=O)N[C@@H](CCCCN)C(=O)NCCCCCCCCCCCC(=O)N[C@@H](CCCCN)C(=O)NCCCCCCCCCCCC(=O)N[C@@H](CCCCN)C(=O)NCCCCCCCCCCCC(=O)N[C@@H](CCCCN)C(N)=O [C12K(NC12K)3NH2] | > 16 | –
CCCCCCCCCCCC(=O)N[C@@H](CCCCN)C(=O)NCCCCCCCC(=O)N[C@@H](CCCCN)C(=O)N[C@@H](CCCCN)C(=O)NCCCCCCCC(=O)N[C@@H](CCCCN)C(N)=O [C12(KNC8K)2NH2] (Lauroyl-K[Aoc]KK[Aoc]K-NH2) | < 16 | –
NCCCC[C@H](NC(=O)CCCCCCCCCCCNC(=O)[C@H](CCCCN)NC(=O)CCCCCCCCCCCNC(=O)[C@H](CCCCN)NC(=O)CCCCCCCCCCCNC(=O)[C@H](CCCCN)NC(=O)CCCCCCCCCCCNC(=O)[C@@H](N)CCCCN)C(N)=O [K(NC12K)4NH2] | 50 | –
NCCCC[C@H](NC(=O)CCCCCCCCCCCNC(=O)[C@H](CCCCN)NC(=O)CCCCCCCCCCCNC(=O)[C@H](CCCCN)NC(=O)CCCCCCCCCCCNC(=O)[C@H](CCCCN)NC(=O)CCCCCCCCCCCNC(=O)[C@H](CCCCN)NC(=O)CCCCCCCCCCCNC(=O)[C@H](CCCCN)NC(=O)CCCCCCCCCCCNC(=O)[C@H](CCCCN)NC(=O)CCCCCCCCCCCNC(=O)[C@@H](N)CCCCN)C(N)=O [K(NC12K)7NH2] | > 16 | –
NCCCCCCCCCCCC(=O)N[C@@H](CCCCN)C(=O)NCCCCCCCCCCCC(=O)N[C@@H](CCCCN)C(=O)NCCCCCCCCCCCC(=O)N[C@@H](CCCCN)C(N)=O [(NC12K)3NH2] | > 16 | –
NCCCC[C@H](NC(=O)CCCCCCCCCCCNC(=O)[C@H](CCCCN)NC(=O)CCCCCCCCCCCNC(=O)[C@H](CCCCN)NC(=O)CCCCCCCCCCCNC(=O)[C@@H](N)CCCCN)C(N)=O [K(NC12K)3NH2] | > 16 | –
CCCCCCCCCCCC(=O)N[C@@H](CCCCN)C(=O)N[C@@H](CCCCN)C(=O)NCCCCCCCCCCCC(=O)N[C@@H](CCCCN)C(=O)N[C@@H](CCCCN)C(=O)NCCCCCCCCCCCC(=O)N[C@@H](CCCCN)C(N)=O [C12K(KNC12K)2NH2] (Lauroyl-KK[12Ado]KK[12Ado]K-NH2) | – | CC50 [2]: > 16 µM; CC50 [3]: 12 ± 4 µM; CC50 [4]: 11 ± 1 µM; CC50 at 24 h ([1]; rat, primary non-cancerous cardiac fibroblasts (CF), 24 hours incubation, XTT, non-cancerous cells, read-out: Cancer LC50 Rat primary cardiac fibroblast CF): 38 ± 1 µM
NCCCC[C@H](NC(=O)CCCCCCCCCCCNC(=O)[C@@H](N)CCCCN)C(=O)O [KNC12K] | > 16 | –
CCCCCCCCCCCC(=O)N[C@@H](CCCCN)C(=O)NCCCCCCCC(=O)N[C@@H](CCCCN)C(N)=O [C12(KNC8K)NH2] | < 16 | –
CCCCCCCCCCCC(=O)N[C@@H](CCCCN)C(=O)NCCCCCCCC(=O)N[C@@H](CCCCN)C(=O)N[C@@H](CCCCN)C(=O)NCCCCCCCC(=O)N[C@@H](CCCCN)C(=O)N[C@@H](CCCCN)C(=O)NCCCCCCCC(=O)N[C@@H](CCCCN)C(N)=O [C12(KNC8K)3NH2] (Lauroyl-K[Aoc]KK[Aoc]KK[Aoc]K-NH2) | < 16 | –
NCCCC[C@H](NC(=O)CCCCCCCCCCCNC(=O)[C@H](CCCCN)NC(=O)CCCCCCCCCCCNC(=O)[C@H](CCCCN)NC(=O)CCCCCCCCCCCNC(=O)[C@H](CCCCN)NC(=O)CCCCCCCCCCCNC(=O)[C@H](CCCCN)NC(=O)CCCCCCCCCCCNC(=O)[C@H](CCCCN)NC(=O)CCCCCCCCCCCNC(=O)[C@@H](N)CCCCN)C(N)=O [K(NC12K)6NH2] | > 16 | –
CCCCCCCCCCCC(=O)N[C@@H](CCCCN)C(=O)NCCCCCCCC(=O)N[C@@H](CCCCN)C(=O)N[C@@H](CCCCN)C(=O)NCCCCCCCC(=O)N[C@@H](CCCCN)C(=O)N[C@@H](CCCCN)C(=O)NCCCCCCCC(=O)N[C@@H](CCCCN)C(=O)N[C@@H](CCCCN)C(=O)NCCCCCCCC(=O)N[C@@H](CCCCN)C(N)=O [C12(KNC8K)4NH2] (Lauroyl-K[Aoc]KK[Aoc]KK[Aoc]KK[Aoc]K-NH2) | < 16 | –
CCCCCCCCCCCC(=O)N[C@@H](CCCCN)C(=O)NCCCCCCCCCCCC(=O)N[C@@H](CCCCN)C(=O)NCCCCCCCCCCCC(=O)N[C@@H](CCCCN)C(=O)O [C12K(NC12K)2] | > 16 | –
NCCCCCCCCCCCC(=O)N[C@@H](CCCCN)C(=O)NCCCCCCCCCCCC(=O)N[C@@H](CCCCN)C(N)=O [(NC12K)2NH2] | > 16 | –
CCCCCCCCCCCC(=O)N[C@@H](CCCCN)C(=O)NCCCCCCCCCCCC(=O)N[C@@H](CCCCN)C(=O)NCCCCCCCCCCCC(=O)N[C@@H](CCCCN)C(N)=O [C12K(NC12K)2NH2] | > 16 | –

SMILES | CC50 at 24 h [1, 5] [µM] | further results
CCCCCCCCCCCC(=O)N[C@@H](CCCCN)C(=O)NCCCCCCCCCCCC(=O)N[C@@H](CCCCN)C(=O)NCCCCCCCCCCCC(=O)N[C@@H](CCCCN)C(=O)NCCCCCCCCCCCC(=O)N[C@@H](CCCCN)C(=O)O [C12K(NC12K)3] | > 16 | –
CCCCCCCCCCCC(=O)N[C@@H](CCCCN)C(=O)NCCCCCCCCCCCC(=O)N[C@@H](CCCCN)C(N)=O [C12KNC12KNH2] | > 16 | –
NCCCCCCCCCCCC(=O)N[C@@H](CCCCN)C(=O)NCCCCCCCCCCCC(=O)N[C@@H](CCCCN)C(=O)NCCCCCCCCCCCC(=O)N[C@@H](CCCCN)C(=O)NCCCCCCCCCCCC(=O)N[C@@H](CCCCN)C(=O)NCCCCCCCCCCCC(=O)N[C@@H](CCCCN)C(N)=O [(NC12K)5NH2] | > 16 | –
NCCCC[C@H](NC(=O)CCCCCCCCCCCNC(=O)[C@H](CCCCN)NC(=O)CCCCCCCCCCCNC(=O)[C@H](CCCCN)NC(=O)CCCCCCCCCCCNC(=O)[C@@H](N)CCCCN)C(=O)O [K(NC12K)3] | > 16 | –
NCCCC[C@H](NC(=O)CCCCCCCCCCCNC(=O)[C@H](CCCCN)NC(=O)CCCCCCCCCCCNC(=O)[C@H](CCCCN)NC(=O)CCCCCCCCCCCNC(=O)[C@H](CCCCN)NC(=O)CCCCCCCCCCCNC(=O)[C@H](CCCCN)NC(=O)CCCCCCCCCCCNC(=O)[C@@H](N)CCCCN)C(N)=O [K(NC12K)5NH2] | > 16 | –
NCCCCCCCCCCCC(=O)N[C@@H](CCCCN)C(=O)NCCCCCCCCCCCC(=O)N[C@@H](CCCCN)C(=O)NCCCCCCCCCCCC(=O)N[C@@H](CCCCN)C(=O)NCCCCCCCCCCCC(=O)N[C@@H](CCCCN)C(=O)NCCCCCCCCCCCC(=O)N[C@@H](CCCCN)C(=O)NCCCCCCCCCCCC(=O)N[C@@H](CCCCN)C(=O)NCCCCCCCCCCCC(=O)N[C@@H](CCCCN)C(N)=O [(NC12K)7NH2] | > 16 | –
CCCCCCCCCCCC(=O)N[C@@H](CCCCN)C(=O)NCCCCCCCCCCCC(=O)N[C@@H](CCCCN)C(=O)O [C12KNC12K] | > 16 | –
NCCCCCCCCCCCC(=O)N[C@@H](CCCCN)C(=O)NCCCCCCCCCCCC(=O)N[C@@H](CCCCN)C(=O)NCCCCCCCCCCCC(=O)N[C@@H](CCCCN)C(=O)NCCCCCCCCCCCC(=O)N[C@@H](CCCCN)C(=O)NCCCCCCCCCCCC(=O)N[C@@H](CCCCN)C(=O)NCCCCCCCCCCCC(=O)N[C@@H](CCCCN)C(=O)NCCCCCCCCCCCC(=O)N[C@@H](CCCCN)C(=O)NCCCCCCCCCCCC(=O)N[C@@H](CCCCN)C(N)=O [(NC12K)8NH2] | > 16 | –
NCCCCCCCCCCCC(=O)N[C@@H](CCCCN)C(=O)NCCCCCCCCCCCC(=O)N[C@@H](CCCCN)C(=O)O [(NC12K)2] | > 16 | –
NCCCCCCCCCCCC(=O)N[C@@H](CCCCN)C(=O)NCCCCCCCCCCCC(=O)N[C@@H](CCCCN)C(=O)NCCCCCCCCCCCC(=O)N[C@@H](CCCCN)C(=O)NCCCCCCCCCCCC(=O)N[C@@H](CCCCN)C(=O)O [(NC12K)4] | > 16 | –
NCCCCCCCCCCCC(=O)N[C@@H](CCCCN)C(=O)NCCCCCCCCCCCC(=O)N[C@@H](CCCCN)C(=O)NCCCCCCCCCCCC(=O)N[C@@H](CCCCN)C(=O)NCCCCCCCCCCCC(=O)N[C@@H](CCCCN)C(=O)NCCCCCCCCCCCC(=O)N[C@@H](CCCCN)C(=O)NCCCCCCCCCCCC(=O)N[C@@H](CCCCN)C(N)=O [(NC12K)6NH2] | > 16 | –
NCCCC[C@H](NC(=O)CCCCCCCCCCCNC(=O)[C@@H](N)CCCCN)C(N)=O [KNC12KNH2] | > 16 | –
NCCCCCCCCCCCC(=O)N[C@@H](CCCCN)C(=O)NCCCCCCCCCCCC(=O)N[C@@H](CCCCN)C(=O)NCCCCCCCCCCCC(=O)N[C@@H](CCCCN)C(=O)O [(NC12K)3] | > 16 | –
NCCCC[C@H](NC(=O)CCCCCCCCCCCNC(=O)[C@H](CCCCN)NC(=O)CCCCCCCCCCCNC(=O)[C@@H](N)CCCCN)C(=O)O [K(NC12K)2] | > 16 | –
CCCCCCCCCCCC(=O)N[C@@H](CCCCN)C(=O)NCCCCCCCCCCCC(=O)N[C@@H](CCCCN)C(=O)NCCCCCCCCCCCC(=O)N[C@@H](CCCCN)C(=O)NCCCCCCCCCCCC(=O)N[C@@H](CCCCN)C(=O)NCCCCCCCCCCCC(=O)N[C@@H](CCCCN)C(N)=O [C12K(NC12K)4NH2] | 37 ± 2.12 | –

From US20100173832A1, “ANTICANCEROUS POLYMERIC AGENTS” (TECHNION RESEARCH & DEVELOPMENT FOUNDATION LTD., priority 2007, published 2010)
